Key:
[1] = system: Aβ42 levels in rat primary cortical neuron culture; assay: Aβ42 in conditioned medium of rat primary cortical neuron culture, 5-day incubation; assay type: cell-based; settings: n = 3
From the text: Reagents: All reagents were of analytical grade (purity > 98%) and were purchased from Sigma-Aldrich Chemical Co. unless otherwise specified. SSG (1) was purchased from Wako Pure Chemical Industries, Ltd. Diosgenin (6), Dioscin (9), Polyphyllin D (10), Timosaponin BI (22) and Timosaponin BII (23) were purchased from Chengdu Must Bio-Technology Co.
(§1) Ltd. Yamogenin (7) was bought from Ambinter c/o Greenpharma while Smilagenin (24) was bought from Steraloids Inc. Substances dissolved in DMSO as stock solutions. Cell culture medium constituents were purchased from Life Technologies, Inc.
Cell culture: Neuro-2A cells expressing Swedish mutants of APP (N2A-APPswe provided by Prof. Yifan Han, The Hong Kong Polytechnic University)1 was cultured in minimal essential medium with 2 mM glutamine, 2 mM pyruvate and 10% fetal bovine serum. Cells were seeded at 6-well plate at 1×106 cells/mL and grown for two days until confluence. The medium was replaced and the testing compounds were added at indicated concentrations for […]
Primary cortical neurons were prepared from embryonic day 17 Sprague-Dawley rats (Laboratory Animal Unit, The University of Hong Kong). Cerebral cortices were mechanically dissociated in complete medium (MEM with 18 mM glucose; 2 mM L-glutamine; 5% FBS; hormone cocktail, penicillin (50 U/mL), streptomycin (50 μg/mL), and […]). Cells were seeded onto six-well plate (0.5 × 10^6 cells/well) pre-coated with poly-L-lysine. […]
rabbit antibody (Millipore). The immunoreactivities were detected using enhanced chemiluminescence reagents (GE Health care). […]
Aβ ELISA: Aβ concentrations in conditioned medium were assayed using ELISA kits for human Aβ40, human Aβ42 (ultrasensitive) (Invitrogen), human Aβ38 (MyBioSource) (in N2A-APPswe cells) or Wako High Sensitive Aβx-42 ELISA kit (in Rat primary cortical neuron culture). The viability of the N2A-APPswe and Primary cortical neurons were determined by MTT and LDH release assays, respectively. […]

[2] = system: Aβ42 production in N2A-APPswe cells; assay: Aβ42 in conditioned medium of N2A-APPswe cells by ELISA, 18 h treatment; assay type: cell-based; settings: for decrease in Aβ42 / Aβ42-lowering effect (in words): N2A-APPswe cells; for decrease in Aβ42: 18 h; for IC50: N2a-APPswe, read-out: IC50 in lowering Aβ42 production, N2A-APPswe cells, mean ± standard deviation, n ≥ 3
From the text: Sigma-Aldrich Chemical Co. unless otherwise specified. SSG (1) was purchased from Wako Pure Chemical Industries, Ltd. Diosgenin (6), Dioscin (9), Polyphyllin D (10), Timosaponin BI (22) and Timosaponin BII (23) were purchased from Chengdu Must Bio-Technology Co.
as §1
Cell culture: Neuro-2A cells expressing Swedish mutants of APP (N2A-APPswe provided by Prof. Yifan Han, The Hong Kong Polytechnic University)1 was cultured in minimal essential medium with 2 mM glutamine, 2 mM pyruvate and 10% fetal bovine serum. […]
Aβ ELISA: Aβ concentrations in conditioned medium were assayed using ELISA kits for […]

C[C@H]1CC[C@@]2(OC1)O[C@H]1C[C@H]3[C@@H]4CC[C@@H]5C[C@@H](O)CC[C@]5(C)[C@H]4CC[C@]3(C)[C@H]1[C@@H]2C [SSG (1), sarsasapogenin]
Aβ42 reduction (%) ([1]; 5 μM): 25 ± 4% | decrease in Aβ42 ([2]; 50 μM): 55% | decrease in Aβ42 ([2]; 100 μM): 40% | IC50 [2]: 53 ± 9 µM

C[C@H]1CC[C@@]2(OC1)O[C@H]1C[C@H]3[C@@H]4CC[C@@H]5C[C@@H](O[C@@H]6O[C@H](CO)[C@H](O)[C@H](O)[C@H]6O)CC[C@]5(C)[C@H]4CC[C@]3(C)[C@H]1[C@@H]2C [TAI (3), timosaponin A I]
Aβ42 reduction (%) ([1]; 10 μM): 28 ± 5% | Aβ42-lowering effect (in words) [2]: effectively lowered | IC50 [2]: ~6.1 µM

C[C@H]1CC[C@@]2(OC1)O[C@H]1C[C@H]3[C@@H]4CC[C@@H]5C[C@@H](O[C@@H]6O[C@H](CO)[C@H](O)[C@H](O)[C@H]6O[C@@H]6O[C@H](CO)[C@@H](O)[C@H](O)[C@H]6O)CC[C@]5(C)[C@H]4CC[C@]3(C)[C@H]1[C@@H]2C [TAIII (2), timosaponin A III]
Aβ42 reduction (%) ([1]; 5 μM): 42 ± 9% | Aβ42-lowering effect (in words) [2]: effectively lowered | IC50 [2]: ~2.3 µM
